Test [1] has as its target T1, Fatty-acid amide hydrolase 1 (Mus musculus, UniProt O08914).
T1 sequence (O08914 whole entry): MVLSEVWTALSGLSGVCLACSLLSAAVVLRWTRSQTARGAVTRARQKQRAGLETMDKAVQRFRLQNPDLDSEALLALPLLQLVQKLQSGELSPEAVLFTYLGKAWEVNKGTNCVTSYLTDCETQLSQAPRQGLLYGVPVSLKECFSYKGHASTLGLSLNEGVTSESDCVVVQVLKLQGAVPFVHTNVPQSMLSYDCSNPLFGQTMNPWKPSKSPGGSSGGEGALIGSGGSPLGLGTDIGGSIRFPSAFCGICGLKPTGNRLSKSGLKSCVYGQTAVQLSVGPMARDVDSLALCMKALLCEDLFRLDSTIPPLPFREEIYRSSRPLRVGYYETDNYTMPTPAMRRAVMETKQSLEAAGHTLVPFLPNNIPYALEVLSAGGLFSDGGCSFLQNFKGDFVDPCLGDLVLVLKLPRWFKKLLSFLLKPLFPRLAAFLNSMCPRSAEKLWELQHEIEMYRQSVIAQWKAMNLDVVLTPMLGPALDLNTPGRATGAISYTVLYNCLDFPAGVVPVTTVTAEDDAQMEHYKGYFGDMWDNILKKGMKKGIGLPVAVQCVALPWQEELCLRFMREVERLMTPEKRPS
The experiment in a line: Inhibition of mouse brain FAAH assessed as conversion of [3H-ethanolamine]AEA to [3H]ethanolamine by scintillation counting.

Test [2] deals with Monoglyceride lipase MGLL (Mus musculus) (UniProt O35678). Nature of the test: Inhibition of mouse brain MAGL.

Molecules are shown by their SMILES. A value given as a limit tells only on which side of the number the result lay.

Sequence of Monoglyceride lipase MGLL (Mus musculus) (O35678 whole entry, looked up): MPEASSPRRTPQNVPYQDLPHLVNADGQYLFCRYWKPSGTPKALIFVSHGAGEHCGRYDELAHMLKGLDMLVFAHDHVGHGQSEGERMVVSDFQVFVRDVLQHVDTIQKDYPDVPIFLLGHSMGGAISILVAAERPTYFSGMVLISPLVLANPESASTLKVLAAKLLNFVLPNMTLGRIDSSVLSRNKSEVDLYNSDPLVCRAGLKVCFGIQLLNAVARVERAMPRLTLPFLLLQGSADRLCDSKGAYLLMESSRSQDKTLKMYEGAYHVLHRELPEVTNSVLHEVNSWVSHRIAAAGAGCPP

As for `O=C(Nc1ccccc1)ON=C1CCC(c2ccccc2)CC1` (configuration not stated) [4-Phenyl-cyclohexanone, O-(phenylaminocarbonyl)oxime], in test [1], the IC50 was greater than 50 µM.

In test [2], `CC(=NOC(=O)Nc1ccccc1)c1cccc(-c2cccs2)c1` [1-(3-Thiophen-2-yl-phenyl)-ethanone, O-(phenylaminocarbonyl)oxime] displayed an IC50 greater than 10 µM.

A word on the IC50: it is the concentration that inhibits the measured activity by half.

The record behind these values is BindingDB's records for doi:10.1016/j.bmcl.2010.06.050 (Universit&#224, 2010).
